Several values for one entry are separate records, joined by “and”; a condition that tells them apart may be missing. Identical values can stand only once.
Assays:
[1] = system: VSV-G-pseudotyped HIV-1 (pHIV-1NL4-3); test: microbe, parasite or virus in culture; type: cell-based; settings: for inhibition at 10 µM: Human immunodeficiency virus 1, SUP-T1, read-out: Inhibition (%) (10 μM), effects on late-stage HIV-1; for EC50: Human immunodeficiency virus 1, read-out: Mean EC50 HIV-1NL4-3
[2] = target: T1, HIV-1 protease (Human immunodeficiency virus type 1 group M subtype B, UniProt P04585); test: biochemical; type: biochemical; settings: for IC50: IC50 (HIV-1 protease inhibition)
[3] = Cytotoxicity assay (CCK8 Assay Kit); settings: human
[4] = system: influenza virus strain H3N2; set-up: method as in PMID 26077494; settings: read-out: IC50 against influenza H3N2; cited from earlier work
[5] = system: influenza virus strain H1N1; set-up: method as in PMID 26077494; settings: read-out: IC50 against influenza H1N1; cited from earlier work
[6] = system: influenza virus strain H5N1; settings: read-out: IC50 against influenza H5N1; cited from earlier work
[7] = system: DRV-resistant HIV-1 variant pHIV-1DRV^RS (V32I, L33F, I54M, I84V); test: microbe, parasite or virus in culture; type: cell-based; settings: for EC50: Human immunodeficiency virus 1, read-out: Mean EC50 HIVDRV^Rs
[8] = system: HEK293T cells; test: Cytotoxicity assay (CCK8 Assay Kit); settings: HEK293T (293T) cells, CCK8, 24 h
[9] = target: T1, HIV-1 protease; test: biochemical; type: binding
[10] = HEK293T cells, CC50, HEK293T (293T) cells, CCK8, 24 h

| SMILES | inhibition at 10 µM [1] [%] | IC50 [2] | CC50 at 24 h [3, 10] [nM] | also measured |
| --- | --- | --- | --- | --- |
| CSc1ccc(S(=O)(=O)N(CC(C)C)C[C@@H](O)[C@H](Cc2ccccc2)NC(=O)c2ccc(O)c(O)c2)cc1 [17d] | 100 | 0.0076 ± 0.0029 nM | > 100000 | Effectivity in single-round infection assay compared with DRV [1]: equipotent with DRV |
| CC(C)CN(C[C@@H](O)[C@H](Cc1ccccc1)NC(=O)c1ccccc1O)S(=O)(=O)c1ccc(N)cc1 [16a] | 100 | 0.54 ± 0.11 nM | > 100000 | Effectivity in single-round infection assay compared with DRV [1]: equipotent with DRV |
| CSc1ccc(S(=O)(=O)N(CC(C)C)C[C@@H](O)[C@H](Cc2ccccc2)NC(=O)c2cc(O)cc(O)c2)cc1 [17f] | 100 | 0.0066 ± 0.0021 nM | > 100000 | Effectivity in single-round infection assay compared with DRV [1]: equipotent with DRV |
| O=c1oc2cc(/C=C/c3ccc(O)c(O)c3)oc(=O)c2c2cc(O)c(O)cc12 [Phelligridin D] | – | – | – | IC50 [4]: 10300 nM; IC50 [5]: 8800 nM; IC50 [6]: 10900 nM |
| CC(C)CN(C[C@@H](O)[C@H](Cc1ccccc1)NC(=O)c1ccc(O)c(O)c1)S(=O)(=O)c1ccc(N)cc1 [16d] | 100 | 1.63 ± 0.33 nM | > 100000 | Effectivity in single-round infection assay compared with DRV [1]: equipotent with DRV |
| CC(C)CN(C[C@@H](O)[C@H](Cc1ccccc1)NC(=O)c1cc(O)cc(O)c1)S(=O)(=O)c1ccc(N)cc1 [16f] | 99 ± 2 | 0.27 ± 0.03 nM | > 100000 | – |
| COc1cc(O)c(C(=O)N[C@@H](Cc2ccccc2)[C@H](O)CN(CC(C)C)S(=O)(=O)c2ccc(N)cc2)cc1OC [16i] | – | 0.6 ± 0.18 nM | > 100000 | – |
| COc1cc(C(=O)N[C@@H](Cc2ccccc2)[C@H](O)CN(CC(C)C)S(=O)(=O)c2ccc(SC)cc2)cc(OC)c1O [17h] | – | 0.32 ± 0.03 nM | > 100000 | – |
| COc1ccc(C(=O)N[C@@H](Cc2ccccc2)[C@H](O)CN(CC(C)C)S(=O)(=O)c2ccc(N)cc2)c(O)c1 [16c] | 90 ± 6 | 4.14 ± 1.38 nM | > 100000 | – |
| CSc1ccc(S(=O)(=O)N(CC(C)C)C[C@@H](O)[C@H](Cc2ccccc2)NC(=O)c2ccc(Cl)cc2O)cc1 [17b] | – | 2.79 ± 0.44 nM | > 100000 | – |
| COc1ccc(S(=O)(=O)N(CC(C)C)C[C@@H](O)[C@H](Cc2ccccc2)NC(=O)c2ccc(O)c(O)c2)cc1 [15d] | 100 | 0.0059 ± 0.0007 nM | > 20000 | EC50 [7]: 402 ± 47.3 nM; Effectivity in single-round infection assay compared with DRV [1]: equipotent with DRV; EC50 [1]: 15.4 ± 2.17 nM; CC50 [8]: 38200 nM |
| COc1cc(C(=O)N[C@@H](Cc2ccccc2)[C@H](O)CN(CC(C)C)S(=O)(=O)c2ccc(N)cc2)cc(OC)c1O [16h] | 99 ± 3 | 0.04 ± 0.003 nM | > 100000 | – |
| COc1ccc(S(=O)(=O)N(CC(C)C)C[C@@H](O)[C@H](Cc2ccccc2)NC(=O)c2cc(O)cc(O)c2)cc1 [15f] | 100 | 0.0024 ± 0.0004 nM | – | Fold Resistance, EC50 (mutant)/EC50 (WT) [7]: 1.57 fold; EC50 [7]: 45.5 ± 12.1 nM; Effectivity in single-round infection assay compared with DRV [1]: equipotent with DRV; EC50 [1]: 28.9 ± 9.21 nM; Enhancement of enzymatic inhibitory activity compared with DRV [2]: over 200 fold |
| COc1ccc(S(=O)(=O)N(CC(C)C)C[C@@H](O)[C@H](Cc2ccccc2)NC(=O)c2ccccc2O)cc1 [15a] | 98 ± 2 | 3.34 ± 0.28 nM | > 100000 | – |
| CSc1ccc(S(=O)(=O)N(CC(C)C)C[C@@H](O)[C@H](Cc2ccccc2)NC(=O)c2ccc(O)cc2O)cc1 [17e] | – | 0.4 ± 0.08 nM | > 100000 | – |
| CC(C)CN(C[C@@H](O)[C@H](Cc1ccccc1)NC(=O)O[C@H]1CO[C@H]2OCC[C@H]21)S(=O)(=O)c1ccc(N)cc1 [DRV, Darunavir, reference compound] | 100 | – | – | EC50 [7]: 136.8 ± 1.12 nM; EC50 [1]: 1.8 ± 0.73 nM; CC50 at 24 h [3]: > 100000 nM |
| CSc1ccc(S(=O)(=O)N(CC(C)C)C[C@@H](O)[C@H](Cc2ccccc2)NC(=O)c2ccccc2O)cc1 [17a] | – | 3.97 ± 0.41 nM | > 100000 | – |
| COc1ccc(C(=O)N[C@@H](Cc2ccccc2)[C@H](O)CN(CC(C)C)S(=O)(=O)c2ccc(SC)cc2)c(O)c1 [17c] | – | 8.21 ± 1.2 nM | > 100000 | – |
| COc1ccc(S(=O)(=O)N(CC(C)C)C[C@@H](O)[C@H](Cc2ccccc2)NC(=O)c2ccc(OC)cc2O)cc1 [15c] | 92 ± 5 | 4.68 ± 0.74 nM | > 100000 | – |
| COc1ccc(S(=O)(=O)N(CC(C)C)C[C@@H](O)[C@H](Cc2ccccc2)NC(=O)c2cc(O)c(O)c(O)c2)cc1 [15g] | 99 ± 1 | 1.13 ± 0.23 nM | > 100000 | – |
| COc1ccc(S(=O)(=O)N(CC(C)C)C[C@@H](O)[C@H](Cc2ccccc2)NC(=O)c2ccc(O)cc2O)cc1 [15e] | 75 ± 6 | 0.3 ± 0.08 nM | 78800 | – |
| COc1ccc(S(=O)(=O)N(CC(C)C)C[C@@H](O)[C@H](Cc2ccccc2)NC(=O)c2ccc(Cl)cc2O)cc1 [15b] | 96 ± 3 | 7.82 ± 0.93 nM | > 20000 | Fold Resistance, EC50 (mutant)/EC50 (WT) [7]: 1.31 fold; EC50 [7]: 1840 ± 39.6 nM; EC50 [1]: 1400 ± 23 nM; Kd [9]: 7100 nM; CC50 [8]: 33900 nM |
| COc1ccc(S(=O)(=O)N(CC(C)C)C[C@@H](O)[C@H](Cc2ccccc2)NC(=O)c2cc(OC)c(OC)cc2O)cc1 [15i] | – | 1.41 ± 0.43 nM | > 100000 | – |
| CC(C)CN(C[C@@H](O)[C@H](Cc1ccccc1)NC(=O)c1ccc(Cl)cc1O)S(=O)(=O)c1ccc(N)cc1 [16b] | 98 ± 2 | 0.31 ± 0.08 nM | > 100000 | – |
| COc1cc(O)c(C(=O)N[C@@H](Cc2ccccc2)[C@H](O)CN(CC(C)C)S(=O)(=O)c2ccc(SC)cc2)cc1OC [17i] | – | 4.71 ± 0.18 nM | > 100000 | – |
| CC(C)CN(C[C@@H](O)[C@H](Cc1ccccc1)NC(=O)c1ccc(O)cc1O)S(=O)(=O)c1ccc(N)cc1 [16e] | 75 ± 8 | 0.43 ± 0.08 nM | > 100000 | – |
| COc1ccc(S(=O)(=O)N(CC(C)C)C[C@@H](O)[C@H](Cc2ccccc2)NC(=O)c2cc(OC)c(O)c(OC)c2)cc1 [15h] | 99 ± 2 | 0.08 ± 0.03 nM | 84700 | – |
| CC(C)CN(C[C@@H](O)[C@H](Cc1ccccc1)NC(=O)c1cc(O)c(O)c(O)c1)S(=O)(=O)c1ccc(N)cc1 [16g] | 55 ± 6 | 68 nM and 68.2 nM | 57600 | – |

Reference: article PMC9697080 (International Journal of Molecular Sciences, 2022)
